Experimental data published in US20240246956A1, “CLASS IIA HISTONE DEACETYLASE (HDAC) DEGRADER LIGANDS AND METHODS OF USE THEREOF” (DANA-FARBER CANCER INSTITUTE, INC., priority 2021, published 2024).

What was measured:
HDAC6 = HDAC6 (Homo sapiens, UniProt Q9UBN7); settings: FIG. 2A
Description: (§1) The in vitro HDAC enzymatic assays were performed by Reaction Biology (Devault, PA).

HDAC8 = HDAC8 (Homo sapiens, UniProt Q9BY41); settings: FIG. 2A
Description: as §1

HDAC7 [1] = target: T1, HDAC7 (Homo sapiens, UniProt Q8WUI4); experiment: In vitro HDAC enzymatic assay (Reaction Biology); assay type: biochemical; parameters: purchased Reaction Biology (Devault, PA); settings: dose response, FIG. 2A-2B
T1 sequence (Q8WUI4 1-952): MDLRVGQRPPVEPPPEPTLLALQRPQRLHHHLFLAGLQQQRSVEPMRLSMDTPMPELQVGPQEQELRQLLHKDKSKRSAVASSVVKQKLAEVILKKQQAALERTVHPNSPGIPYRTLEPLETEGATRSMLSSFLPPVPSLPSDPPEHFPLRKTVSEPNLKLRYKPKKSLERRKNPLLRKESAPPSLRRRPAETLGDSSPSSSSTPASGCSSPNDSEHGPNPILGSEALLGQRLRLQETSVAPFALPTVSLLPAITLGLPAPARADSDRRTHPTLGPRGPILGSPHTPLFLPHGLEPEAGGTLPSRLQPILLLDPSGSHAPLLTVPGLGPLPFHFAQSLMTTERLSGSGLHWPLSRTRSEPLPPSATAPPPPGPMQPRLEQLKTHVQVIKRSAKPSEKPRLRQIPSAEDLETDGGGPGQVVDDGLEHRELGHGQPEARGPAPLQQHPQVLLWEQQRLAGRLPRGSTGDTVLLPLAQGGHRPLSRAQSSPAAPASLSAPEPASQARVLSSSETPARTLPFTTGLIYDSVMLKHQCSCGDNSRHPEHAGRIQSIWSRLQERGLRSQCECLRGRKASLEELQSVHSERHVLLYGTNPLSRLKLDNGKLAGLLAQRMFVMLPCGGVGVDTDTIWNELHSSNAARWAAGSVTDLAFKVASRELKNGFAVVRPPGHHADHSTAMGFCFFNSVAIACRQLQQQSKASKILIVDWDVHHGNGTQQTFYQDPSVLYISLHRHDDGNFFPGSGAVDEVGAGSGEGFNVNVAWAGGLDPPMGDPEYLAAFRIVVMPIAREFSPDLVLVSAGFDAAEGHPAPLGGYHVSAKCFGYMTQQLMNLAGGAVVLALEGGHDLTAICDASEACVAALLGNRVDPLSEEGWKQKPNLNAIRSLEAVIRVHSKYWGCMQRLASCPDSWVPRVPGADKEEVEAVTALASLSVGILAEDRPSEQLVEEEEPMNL

HDAC7 [2] = target: T1, HDAC7; experiment: Global quantitative proteomics, change in protein abundance in Kelly cells; assay type: cell-based; parameters: endogenous in cells; host or cells: Kelly cells; settings: 1 μM, 5-hour treatment, vs DMSO, FIG. 3
Description: (§2) Cells were washed once with phosphate-buffered saline (PBS), harvested with CellstripperTM (Corning®), washed two additional times with PBS and snap frozen in liquid nitrogen. […] Proteins were precipitated using methanol/chloroform in Donovan et al., Elife 7:e38430 (2018). The precipitated protein was resuspended in 4 M Urea, 50 mM HEPES pH 7.4, followed by dilution to 1 M urea with the addition of 200 mM EPPS, pH 8. Proteins were first digested with LysC (1:50: enzyme:protein) for 12 hours at room temperature. The LysC digestion was diluted to 0.5 M Urea with 200 mM EPPS pH 8 followed by digestion with trypsin (1:50: enzyme:protein) for 6 hours at 37° C. Tandem mass tag (TMT) reagents (Thermo Fisher Scientific) were dissolved in anhydrous acetonitrile (ACN) according to manufacturer's instructions. Anhydrous ACN was added to each peptide sample to a final concentration of 30% v/v, and labeling was induced with the addition of TMT reagent to each sample at a ratio of 1:4 peptide:TMT label. The 11-plex labeling reactions were performed for 1.5 hours at room temperature and the reaction quenched by the addition of hydroxylamine to a final concentration of 0.3% for 15 minutes at room temperature. The sample channels were combined at a 1:1 ratio, desalted using C18 solid phase extraction cartridges (Waters®) and analyzed by LC-MS for channel ratio comparison. Samples were then combined using the adjusted volumes determined in the channel ratio analysis and dried down in a speed vacuum. The combined sample was then resuspended in 1% formic acid, and acidified (pH 2-3) before being subjected to desalting with C18 SPE (Sep-Pak®-, Waters®). […] The 96 resulting fractions were then pooled in a non-contiguous manner into 24 fractions and these fractions were used for subsequent mass spectrometry analysis. Data were collected using an Orbitrap FusionTM LumosTM mass spectrometer (Thermo Fisher Scientific, San Jose, CA, USA) coupled with a […] pump (Thermo Fisher Scientific). Peptides were separated on an EasySprayTM ES803.rev2 75 μm inner diameter microcapillary column (ThermoFisher Scientific). Peptides were separated using a 190 min gradient of 6-27% acetonitrile in 1.0% formic acid with a flow rate of 300 nL/min. Each analysis used an MS3-based TMT method as described in McAlister et al., Anal. Chem. 86(14):7150-7158 (2014). The data were acquired using a mass range of m/z 340-1350, resolution 120,000, automatic gain control (AGC) target 1×10^6, maximum injection time 100 ms, dynamic exclusion of 120 seconds for the peptide measurements in the Orbitrap FusionTM LumosTM mass spectrometer. Data dependent MS2 spectra were acquired in the ion trap with a normalized collision energy (NCE) set at 55%, AGC target set to 1.5×10^5 and a maximum injection time of 150 ms. MS3 scans were acquired in the Orbitrap FusionTM LumosTM mass spectrometer with a higher energy collision dissociation (HCD) set to 55%, AGC target set to 1.5×10^5, maximum injection time of 150 ms, resolution at 50,000 and with a maximum synchronous precursor selection (SPS) precursors set to 10. Proteome Discoverer 2.2 (Thermo Fisher Scientific) was used for .RAW file processing and controlling peptide and protein level false discovery rates, assembling proteins from peptides, and protein quantification from peptides. MS/MS spectra were searched against a Swissprot human database (December 2016) with both the forward and reverse sequences. […] TMT reporter ion intensities were measured using a 0.003 Da window around the theoretical m/z for each reporter ion in the MS3 scan. […] Reporter ion intensities were normalized and scaled using in-house scripts in the R framework. Statistical analysis was carried out using the limma package within the R framework as described in Ritchie et al., Nucleic Acids Res. 43(7):e47 (2015).

class IIa HDACs = experiment: as above; assay type: cell-based, human; settings: 1 μM, 5 hours, vs DMSO, moderated t-test, FIG. 4B-4C
Description: Cells were washed once with phosphate-buffered saline (PBS), harvested with CellstripperTM (Corning®), washed two additional times with PBS and snap frozen in liquid nitrogen. […] Proteins were precipitated using methanol/chloroform in Donovan et al., Elife 7:e38430 (2018). The precipitated protein was resuspended in 4 M Urea, 50 mM HEPES pH 7.4, followed by dilution to 1 M urea with the addition of 200 mM EPPS, pH 8. Proteins were first digested with LysC (1:50: enzyme:protein) for 12 hours at room temperature. The LysC digestion was diluted to 0.5 M Urea with 200 mM EPPS pH 8 followed by digestion with trypsin (1:50: enzyme:protein) for 6 hours at 37° C. Tandem mass tag (TMT) reagents (Thermo Fisher Scientific) were dissolved in anhydrous acetonitrile (ACN) according to manufacturer's instructions. Anhydrous ACN was added to each peptide sample to a final concentration of 30% v/v, and labeling was induced with the addition of TMT reagent to each sample at a ratio of 1:4 peptide:TMT label. The 11-plex labeling reactions were performed for 1.5 hours at room temperature and the reaction quenched by the addition of hydroxylamine to a final concentration of 0.3% for 15 minutes at room temperature. The sample channels were combined at a 1:1 ratio, desalted using C18 solid phase extraction cartridges (Waters®) and analyzed by LC-MS for channel ratio comparison. Samples were then combined using the adjusted volumes determined in the channel ratio analysis and dried down in a speed vacuum. The combined sample was then resuspended in 1% formic acid, and acidified (pH 2-3) before being subjected to desalting with C18 SPE (Sep-Pak®-, Waters®). […] Proteome Discoverer 2.2 (Thermo Fisher Scientific) was used for .RAW file processing and controlling peptide and protein level false discovery rates, assembling proteins from peptides, and protein quantification from peptides. […] TMT reporter ion intensities were measured using a 0.003 Da window around the theoretical m/z for each reporter ion in the MS3 scan. […]

HDAC4 = HDAC4 (Homo sapiens, UniProt P56524); experiment: as above; assay type: cell-based; parameters: endogenous in cells; host or cells: Kelly cells; settings: 1 μM, 5-hour treatment, vs DMSO, FIG. 3
Description: as §2

HDAC4, sequence (P56524 whole entry): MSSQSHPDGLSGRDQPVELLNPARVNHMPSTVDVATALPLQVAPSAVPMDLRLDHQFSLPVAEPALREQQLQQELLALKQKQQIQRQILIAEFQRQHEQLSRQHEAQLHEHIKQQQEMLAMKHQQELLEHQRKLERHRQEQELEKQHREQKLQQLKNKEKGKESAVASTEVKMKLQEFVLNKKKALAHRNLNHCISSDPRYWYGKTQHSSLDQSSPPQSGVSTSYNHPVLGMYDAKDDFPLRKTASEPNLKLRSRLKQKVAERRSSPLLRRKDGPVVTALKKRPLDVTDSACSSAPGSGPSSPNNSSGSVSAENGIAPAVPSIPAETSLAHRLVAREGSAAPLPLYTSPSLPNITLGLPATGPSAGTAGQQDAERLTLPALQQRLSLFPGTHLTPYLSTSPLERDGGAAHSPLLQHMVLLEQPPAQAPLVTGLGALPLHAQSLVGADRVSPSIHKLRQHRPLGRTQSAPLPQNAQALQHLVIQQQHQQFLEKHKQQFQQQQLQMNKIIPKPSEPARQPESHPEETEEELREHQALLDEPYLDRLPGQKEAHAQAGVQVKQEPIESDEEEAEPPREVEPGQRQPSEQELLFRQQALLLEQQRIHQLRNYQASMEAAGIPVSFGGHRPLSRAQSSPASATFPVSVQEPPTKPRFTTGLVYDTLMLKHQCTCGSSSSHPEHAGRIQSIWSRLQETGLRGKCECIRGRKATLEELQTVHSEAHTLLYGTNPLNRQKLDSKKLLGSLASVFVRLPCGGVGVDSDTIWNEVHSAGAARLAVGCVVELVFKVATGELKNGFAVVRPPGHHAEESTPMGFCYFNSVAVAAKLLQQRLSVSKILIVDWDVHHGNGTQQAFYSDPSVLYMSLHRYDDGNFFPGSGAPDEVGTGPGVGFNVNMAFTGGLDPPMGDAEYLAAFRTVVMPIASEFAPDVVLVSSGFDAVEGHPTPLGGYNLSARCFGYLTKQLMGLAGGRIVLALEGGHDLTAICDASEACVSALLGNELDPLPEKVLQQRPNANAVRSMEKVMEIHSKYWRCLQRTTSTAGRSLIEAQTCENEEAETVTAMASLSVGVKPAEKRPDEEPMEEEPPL
HDAC8, sequence (Q9BY41 whole entry): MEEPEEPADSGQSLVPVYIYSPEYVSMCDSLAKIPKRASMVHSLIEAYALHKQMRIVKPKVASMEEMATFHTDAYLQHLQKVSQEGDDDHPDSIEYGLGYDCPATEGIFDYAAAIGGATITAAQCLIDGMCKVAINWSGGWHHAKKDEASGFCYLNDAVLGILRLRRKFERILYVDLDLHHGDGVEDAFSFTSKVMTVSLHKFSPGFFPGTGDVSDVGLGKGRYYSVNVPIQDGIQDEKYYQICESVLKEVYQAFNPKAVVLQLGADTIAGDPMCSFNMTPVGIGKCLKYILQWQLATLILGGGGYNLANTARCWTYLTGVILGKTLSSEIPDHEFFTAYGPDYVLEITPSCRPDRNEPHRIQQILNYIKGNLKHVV
HDAC6, sequence (Q9UBN7 whole entry): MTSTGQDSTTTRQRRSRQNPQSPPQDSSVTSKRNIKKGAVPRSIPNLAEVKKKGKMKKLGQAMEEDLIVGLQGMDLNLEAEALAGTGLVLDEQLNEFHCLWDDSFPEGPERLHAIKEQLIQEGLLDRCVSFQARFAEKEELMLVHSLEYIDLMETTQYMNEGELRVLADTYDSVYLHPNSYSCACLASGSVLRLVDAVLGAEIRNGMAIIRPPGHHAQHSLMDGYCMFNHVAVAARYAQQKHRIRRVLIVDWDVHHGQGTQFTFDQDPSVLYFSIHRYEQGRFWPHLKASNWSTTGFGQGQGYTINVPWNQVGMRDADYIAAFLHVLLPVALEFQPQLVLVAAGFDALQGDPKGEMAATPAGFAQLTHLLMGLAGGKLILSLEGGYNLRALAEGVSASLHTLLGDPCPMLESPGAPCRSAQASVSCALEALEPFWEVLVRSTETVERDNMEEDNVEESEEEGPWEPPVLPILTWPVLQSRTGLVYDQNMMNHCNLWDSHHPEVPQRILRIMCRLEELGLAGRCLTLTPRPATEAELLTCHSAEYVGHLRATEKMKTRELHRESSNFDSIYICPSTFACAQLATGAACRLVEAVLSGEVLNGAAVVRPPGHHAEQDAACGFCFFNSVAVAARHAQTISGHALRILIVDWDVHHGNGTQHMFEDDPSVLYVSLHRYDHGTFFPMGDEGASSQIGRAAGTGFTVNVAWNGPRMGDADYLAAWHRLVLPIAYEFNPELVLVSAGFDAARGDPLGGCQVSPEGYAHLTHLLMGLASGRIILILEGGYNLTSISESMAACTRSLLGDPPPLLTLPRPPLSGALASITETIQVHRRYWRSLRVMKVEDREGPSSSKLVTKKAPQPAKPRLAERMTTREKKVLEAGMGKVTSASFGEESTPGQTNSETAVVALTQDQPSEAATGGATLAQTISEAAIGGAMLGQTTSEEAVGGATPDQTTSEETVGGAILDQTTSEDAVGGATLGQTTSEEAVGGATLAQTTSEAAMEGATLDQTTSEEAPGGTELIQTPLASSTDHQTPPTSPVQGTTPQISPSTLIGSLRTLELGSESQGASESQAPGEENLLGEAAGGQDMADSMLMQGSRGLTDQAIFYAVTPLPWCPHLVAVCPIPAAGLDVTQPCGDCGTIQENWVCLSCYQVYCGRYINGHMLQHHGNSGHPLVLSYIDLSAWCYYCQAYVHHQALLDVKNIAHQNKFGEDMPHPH

protein expression level of HDAC4 (HDAC4) | SMILES | inhibition of HDAC6 (HDAC6) | inhibition of HDAC8 (HDAC8) | inhibition of HDAC7 (HDAC7 [1]) | protein expression level of HDAC7 (HDAC7 [2]) | class IIa HDAC levels (relative protein abundance) (class IIa HDACs)
– | O=C1CCC(N2C(=O)c3cccc(NCCCCCCN4CCC(CNC(=O)c5cccc(-c6noc(C(F)(F)F)n6)c5)(c5nc(-c6ccccc6)cs5)CC4)c3C2=O)C(=O)N1 (centres unmarked) [Compound 1] | did not inhibit | did not inhibit | inhibited | selective reduction in protein expression level | –
reduction in protein expression level | CCN(CCNc1cccc2c1C(=O)N(C1CCC(=O)NC1=O)C2=O)C[C@@H](C)NC(=O)c1ccc(-c2noc(C(F)(F)F)n2)cc1 (stereo partly drawn) [Compound 16, N-((2R)-1-((2-((2-(2,6-dioxopiperidin-3-yl)-1,3-dioxoisoindolin-4-yl)amino)ethyl)(ethyl)amino)propan-2-yl)-4-(5-(trifluoromethyl)-1,2,4-oxadiazol-3-yl)benzamide] | – | – | inhibited | reduction in protein expression level | significant reduction
